From patent US8178548B2, “Anti-infective agents and uses thereof” (priority 2007, dated 2012)
Like-named read-outs stand apart in the source and are kept apart here.

Tests used:
[1] = tested on: genotype 1b-Con1 subgenomic replicon cell line; experiment: HCV Polymerase Replicon Assay, genotype 1b-Con1 (luciferase reporter); type: cell-based; conditions: Hepatitis C virus, 72 h, read-out: EC50 1b
[2] = target: T1, HCV polymerase 1A (Δ21 NS5B, H77) (Hepatitis C virus genotype 1a, UniProt P27958); experiment: biochemical
T1 construct: 20 to 50 nM Δ21 NS5B
T1 sequence (P27958 2421-2990, stated change not applied): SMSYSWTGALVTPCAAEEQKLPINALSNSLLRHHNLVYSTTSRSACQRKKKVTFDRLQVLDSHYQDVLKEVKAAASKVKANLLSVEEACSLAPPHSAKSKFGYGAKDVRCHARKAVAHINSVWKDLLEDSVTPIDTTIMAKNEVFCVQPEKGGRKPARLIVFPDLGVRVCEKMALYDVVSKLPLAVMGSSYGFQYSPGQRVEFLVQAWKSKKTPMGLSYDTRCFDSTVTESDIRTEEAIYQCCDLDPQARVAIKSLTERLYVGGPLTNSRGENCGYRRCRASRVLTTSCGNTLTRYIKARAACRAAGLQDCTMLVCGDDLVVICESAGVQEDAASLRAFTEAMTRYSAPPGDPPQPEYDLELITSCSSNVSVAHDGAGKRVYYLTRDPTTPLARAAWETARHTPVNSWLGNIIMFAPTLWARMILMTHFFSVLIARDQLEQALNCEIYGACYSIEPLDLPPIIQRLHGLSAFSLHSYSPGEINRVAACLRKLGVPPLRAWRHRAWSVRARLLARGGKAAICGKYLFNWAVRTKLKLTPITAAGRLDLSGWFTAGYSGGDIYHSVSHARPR
Experimental: (§1) Either two-fold serial dilutions (fractional inhibition assay) or a narrower range of dilutions spanning the IC50 of the inhibitor (tight binding assay) of the inhibitors were incubated with 20 mM Tris-Cl pH 7.4, 2 mM MnCl2, 1 mM dithiothreitol, 1 mM ethylene diamine tetraacetic acid (EDTA), 60 to 125 μM GTP and 20 to 50 nM Δ21 NS5B (HCV Strain 1B (BK, Genbank accession number M58335, or H77, Genbank accession number AF011751)) for 15 min at room temperature. The reaction was initiated by the addition of 20 μM CTP, 20 μM ATP, 1 μM ^3H-UTP (10 mCi/umol), 5 nM template RNA and 0.1 U/μl RNase inhibitor (RNasin, Promega), and allowed to proceed for 2 to 4 h at room temperature. Reaction volume was 50 μl. The reaction was terminated by the addition of 1 volume of 4 mM spermine in 10 mM Tris-Cl pH 8.0, 1 mM EDTA. After incubation for at least 15 min at room temperature, the precipitated RNA was captured by filtering through a GF/B filter (Millipore) in a 96 well format. The filter plate was washed three times with 200 μl each of 2 mM spermine, 10 mM Tris-Cl pH 8.0, 1 mM EDTA, and 2 times with ethanol. After air-drying, 30 μl of Microscint 20 scintillation cocktail (Packard) was added to each well, and the retained cpm were determined by scintillation counting. […] Retained cpm were plotted vs. inhibitor concentration and fit to equation 1 using non-linear regression (ref. 1) to obtain the IC50 values: Retained cpm=A[sqrt{(IC50+It−Et)^2+4*IC50*Et}−(IC50+It−Et)]
(§2) Ref. Morrison, J. F. and S. R. Stone. 1985. Approaches to the study and analysis of the inhibition of enzymes by slow- and tight-binding inhibitors. Comments Mol. Cell. Biophys. 2: 347-368.
(§3) The sequence of the template RNA used was: 5′-[…] […] […] […] […] […] […] […] […] […] […] […] […] […] […] […] […]-3′ (SEQ ID NO:1).

[3] = target: T2, HCV polymerase 1B (Δ21 NS5B, HCV Strain 1B BK) (Hepatitis C virus genotype 1b, UniProt P26663); experiment: biochemical
T2 construct: 20 to 50 nM Δ21 NS5B
T2 sequence (P26663 2420-2989, stated change not applied): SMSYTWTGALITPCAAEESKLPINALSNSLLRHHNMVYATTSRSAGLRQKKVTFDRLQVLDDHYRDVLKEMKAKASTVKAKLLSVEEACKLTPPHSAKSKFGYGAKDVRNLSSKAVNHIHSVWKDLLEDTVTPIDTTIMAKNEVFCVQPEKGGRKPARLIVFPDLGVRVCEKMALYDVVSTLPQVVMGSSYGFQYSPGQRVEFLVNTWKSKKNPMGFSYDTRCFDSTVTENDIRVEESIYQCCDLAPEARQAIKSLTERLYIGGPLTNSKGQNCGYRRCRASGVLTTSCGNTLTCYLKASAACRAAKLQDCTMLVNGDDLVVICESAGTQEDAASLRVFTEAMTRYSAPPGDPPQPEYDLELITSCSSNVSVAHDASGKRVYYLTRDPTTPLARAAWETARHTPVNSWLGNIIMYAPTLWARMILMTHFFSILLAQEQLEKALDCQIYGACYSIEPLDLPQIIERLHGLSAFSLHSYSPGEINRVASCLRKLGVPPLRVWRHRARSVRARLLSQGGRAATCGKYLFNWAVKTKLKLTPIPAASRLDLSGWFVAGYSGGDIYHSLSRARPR
Experimental: as §1, §2, §3

[4] = tested on: genotype 1a-H77 subgenomic replicon cell line; experiment: HCV Polymerase Replicon Assay, genotype 1a-H77 (luciferase reporter); type: cell-based; conditions: Hepatitis C virus, 72 h, read-out: EC50 1a
[5] = replicon 1b-Con1, luciferase, three days
[6] = replicon 1a-H77, luciferase, three days

COC(=O)c1cc(NS(C)(=O)=O)ccc1/C=C/c1cc(-n2ccc(=O)[nH]c2=O)cc(C(C)(C)C)c1OC [IB-L1-1.7, (E)-methyl 2-(3-tert-butyl-5-(2,4-dioxo-3,4-dihydropyrimidin-1(2H)-yl)-2-methoxystyryl)-5-(methylsulfonamido)benzoate]
EC50 [1]: < 10 nM | IC50 [2]: < 10 nM | IC50 [3]: 10 to 100 nM | EC50 [4]: < 10 nM

COc1c(/C=C/c2ccc(NS(C)(=O)=O)cc2C=NO)cc(-n2ccc(=O)[nH]c2=O)cc1C(C)(C)C [IB-L1-1.8, N-[4-{(E)-2-[3-tert-Butyl-5-(2,4-dioxo-3,4-dihydro-2H-pyrimidin-1-yl)-2-methoxy-phenyl]-vinyl}-3-(hydroxyimino-methyl)-phenyl]-methanesulfonamide]
EC50 [1]: < 10 nM | IC50 [2]: < 10 nM | IC50 [3]: 10 to 100 nM | EC50 [4]: 10 to 100 nM

COCCNC(=O)c1cc(NS(C)(=O)=O)ccc1/C=C/c1cc(-n2ccc(=O)[nH]c2=O)cc(C(C)(C)C)c1OC [IB-L1-1.9, 2-{(E)-2-[3-tert-Butyl-5-(2,4-dioxo-3,4-dihydro-2H-pyrimidin-1-yl)-2-methoxy-phenyl]-vinyl}-5-methanesulfonylamino-N-(2-methoxy-ethyl)-benzamide]
EC50 [1]: < 10 nM | IC50 [2]: < 10 nM | IC50 [3]: 10 to 100 nM | EC50 [4]: 10 to 100 nM

COc1c(/C=C/c2ccc(NS(C)(=O)=O)cc2CO)cc(-n2ccc(=O)[nH]c2=O)cc1C(C)(C)C [IB-L1-1.10, (E)-N-(4-(3-tert-butyl-5-(2,4-dioxo-3,4-dihydropyrimidin-1(2H)-yl)-2-methoxystyryl)-3-(hydroxymethyl)phenyl)methanesulfonamide]
EC50 [1]: < 10 nM | IC50 [2]: < 10 nM | IC50 [3]: 10 to 100 nM | EC50 [4]: < 10 nM

CCOC(=O)c1cc(NS(C)(=O)=O)ccc1/C=C/c1cc(-n2ccc(=O)[nH]c2=O)cc(C(C)(C)C)c1OC [IB-L1-1.11, 2-{(E)-2-[3-tert-Butyl-5-(2,4-dioxo-3,4-dihydro-2H-pyrimidin-1-yl)-2-methoxy-phenyl]-vinyl}-5-methanesulfonylamino-benzoic acid ethyl ester]
EC50 [1]: < 10 nM | IC50 [2]: < 10 nM | IC50 [3]: 10 to 100 nM | EC50 [4]: 10 to 100 nM

CC(C)(C)c1cc(-n2ccc(=O)[nH]c2=O)cc(/C=C/c2ccc(NS(C)(=O)=O)cc2)c1Cl [IB-L1-1.12, N-(4-{(E)-2-[3-tert-Butyl-2-chloro-5-(2,4-dioxo-3,4-dihydro-2H-pyrimidin-1-yl)-phenyl]-vinyl}-phenyl)-methanesulfonamide]
EC50 [1, 5]: 10 to 100 nM | IC50 [2]: < 10 nM | IC50 [3]: 10 to 100 nM | EC50 [4, 6]: 10 to 100 nM

COCc1cc(NS(C)(=O)=O)ccc1/C=C/c1cc(-n2ccc(=O)[nH]c2=O)cc(C(C)(C)C)c1OC [IB-L1-1.13, (E)-N-(4-(3-tert-butyl-5-(2,4-dioxo-3,4-dihydropyrimidin-1(2H)-yl)-2-methoxystyryl)-3-(methoxymethyl)phenyl)methanesulfonamide]
EC50 [1]: < 10 nM | IC50 [2]: < 10 nM | IC50 [3]: 10 to 100 nM | EC50 [4]: 10 to 100 nM

COc1c(/C=C/c2ccc(NS(C)(=O)=O)cc2C(=O)N(C)C)cc(-n2ccc(=O)[nH]c2=O)cc1C(C)(C)C [IB-L1-1.14, 2-{(E)-2-[3-tert-Butyl-5-(2,4-dioxo-3,4-dihydro-2H-pyrimidin-1-yl)-2-methoxy-phenyl]-vinyl}-5-methanesulfonylamino-N,N-dimethyl-benzamide]
EC50 [1]: < 10 nM | IC50 [2]: < 10 nM | IC50 [3]: 10 to 100 nM | EC50 [4]: 10 to 100 nM

COc1c(/C=C/c2cc(F)c(NS(C)(=O)=O)cc2C)cc(-n2ccc(=O)[nH]c2=O)cc1C(C)(C)C [IB-L1-1.15, (E)-N-(4-(3-tert-butyl-5-(2,4-dioxo-3,4-dihydropyrimidin-1(2H)-yl)-2-methoxystyryl)-2-fluoro-5-methylphenyl)methanesulfonamide]
EC50 [1]: < 10 nM | IC50 [2]: < 10 nM | IC50 [3]: 10 to 100 nM | EC50 [4]: < 10 nM

COc1c(/C=C/c2ccc(NS(C)(=O)=O)cc2-c2ncc[nH]2)cc(-n2ccc(=O)[nH]c2=O)cc1C(C)(C)C [IB-L1-1.16, (E)-N-(4-(3-tert-butyl-5-(2,4-dioxo-3,4-dihydropyrimidin-1(2H)-yl)-2-methoxystyryl)-3-(1H-imidazol-2-yl)phenyl)methanesulfonamide]
EC50 [1]: 10 to 100 nM | IC50 [2]: < 10 nM | IC50 [3]: 10 to 100 nM | EC50 [4]: 100 to 1000 nM

CNC(=O)c1cc(NS(C)(=O)=O)ccc1/C=C/c1cc(-n2ccc(=O)[nH]c2=O)cc(C(C)(C)C)c1OC [IB-L1-1.17, 2-{(E)-2-[3-tert-butyl-5-(2,4-dioxo-3,4-dihydro-2H-pyrimidin-1-yl)-2-methoxy-phenyl]-vinyl}-5-methanesulfonylamino-N-methyl-benzamide]
EC50 [1]: < 10 nM | IC50 [2]: < 10 nM | IC50 [3]: 10 to 100 nM | EC50 [4]: 10 to 100 nM

COc1c(/C=C/c2ccc(NS(C)(=O)=O)cc2C(=O)N(C)C2CCS(=O)(=O)C2)cc(-n2ccc(=O)[nH]c2=O)cc1C(C)(C)C (stereo not shown) [IB-L1-1.18, 2-{(E)-2-[3-tert-butyl-5-(2,4-dioxo-3,4-dihydro-2H-pyrimidin-1-yl)-2-methoxy-phenyl]-vinyl}-N-(1,1-dioxo-tetrahydro-1lambda*6*-thiophen-3-yl)-5-methanesulfonylamino-N-methyl-benzamide]
EC50 [1]: 10 to 100 nM | IC50 [2]: < 10 nM | IC50 [3]: 10 to 100 nM | EC50 [4]: 10 to 100 nM

CO/N=C/c1cc(NS(C)(=O)=O)ccc1/C=C/c1cc(-n2ccc(=O)[nH]c2=O)cc(C(C)(C)C)c1OC [IB-L1-1.19, N-(4-(3-tert-butyl-5-(2,4-dioxo-3,4-dihydropyrimidin-1(2H)-yl)-2-methoxystyryl)-3-((E)-(methoxyimino)methyl)phenyl)methanesulfonamide]
EC50 [1]: < 10 nM | IC50 [2]: < 10 nM | IC50 [3]: 10 to 100 nM | EC50 [4]: 10 to 100 nM

COc1c(/C=C/c2ccc(NS(C)(=O)=O)cc2)cc(-n2cc(Cl)c(=O)[nH]c2=O)cc1C(C)(C)C [IB-L1-1.20, N-(4-{(E)-2-[3-tert-butyl-5-(5-chloro-2,4-dioxo-3,4-dihydro-2H-pyrimidin-1-yl)-2-methoxyphenyl]-vinyl}-phenyl)-methanesulfonamide]
EC50 [1, 5]: < 10 nM | IC50 [2]: < 10 nM | IC50 [3]: 10 to 100 nM | EC50 [4, 6]: 10 to 100 nM

COc1c(/C=C/c2ccc(NS(C)(=O)=O)cc2C(N)=O)cc(-n2ccc(=O)[nH]c2=O)cc1C(C)(C)C [IB-L1-1.21, 2-{(E)-2-[3-tert-butyl-5-(2,4-dioxo-3,4-dihydro-2H-pyrimidin-1-yl)-2-methoxy-phenyl]-vinyl}-5-methanesulfonylamino-benzamide]
EC50 [1]: < 10 nM | IC50 [2]: < 10 nM | IC50 [3]: 10 to 100 nM | EC50 [4]: 10 to 100 nM

COc1c(/C=C/c2ccc(NS(C)(=O)=O)cc2C(=O)N2CCC2)cc(-n2ccc(=O)[nH]c2=O)cc1C(C)(C)C [IB-L1-1.22, N-(3-(azetidine-1-carbonyl)-4-{(E)-2-[3-tert-butyl-5-(2,4-dioxo-3,4-dihydro-2H-pyrimidin-1-yl)-2-methoxy-phenyl]-vinyl}-phenyl)-methanesulfonamide]
EC50 [1]: < 10 nM | IC50 [2]: 10 to 100 nM | IC50 [3]: 10 to 100 nM | EC50 [4]: 10 to 100 nM

COc1c(/C=C/c2ccc(NS(C)(=O)=O)cc2C(=O)N2CCOCC2)cc(-n2ccc(=O)[nH]c2=O)cc1C(C)(C)C [IB-L1-1.23, (E)-N-(4-(3-tert-butyl-5-(2,4-dioxo-3,4-dihydropyrimidin-1(2H)-yl)-2-methoxystyryl)-3-(morpholine-4-carbonyl)phenyl)methanesulfonamide]
EC50 [1]: < 10 nM | IC50 [2]: 10 to 100 nM | IC50 [3]: 10 to 100 nM | EC50 [4]: 100 to 1000 nM

COCCN(C)C(=O)c1cc(NS(C)(=O)=O)ccc1/C=C/c1cc(-n2ccc(=O)[nH]c2=O)cc(C(C)(C)C)c1OC [IB-L1-1.24, 2-{(E)-2-[3-tert-butyl-5-(2,4-dioxo-3,4-dihydro-2H-pyrimidin-1-yl)-2-methoxy-phenyl]-vinyl}-5-methanesulfonylamino-N-(2-methoxy-ethyl)-N-methyl-benzamide]
EC50 [1]: < 10 nM | IC50 [2]: 10 to 100 nM | IC50 [3]: 10 to 100 nM | EC50 [4]: 10 to 100 nM

COc1c(/C=C/c2ccc(NS(C)(=O)=O)cc2COC(C)C)cc(-n2ccc(=O)[nH]c2=O)cc1C(C)(C)C [IB-L1-1.25, N-(4-{(E)-2-[3-tert-butyl-5-(2,4-dioxo-3,4-dihydro-2H-pyrimidin-1-yl)-2-methoxy-phenyl]-vinyl}-3-isopropoxymethyl-phenyl)-methanesulfonamide]
EC50 [1]: < 10 nM | IC50 [2]: 10 to 100 nM | IC50 [3]: 10 to 100 nM | EC50 [4]: 10 to 100 nM
